Measured values as given in US10689362B2, “Quinoxaline compounds as type III receptor tyrosine kinase inhibitors” (Development Center for Biotechnology, priority 2016, dated 2020).

Assays:
[1] = biological target: FLT3 kinase (Homo sapiens (Human), UniProt P36888); assay: FLT3 kinase assay (radiometric); assay type: biochemical; settings: bound
Procedure, shortened: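 Recombinant FLT3 (5 ng) phosphorylating poly(Glu4:Tyr1) (2 μg) with 10 μM ATP plus [^33P]-ATP in MOPS pH 7.0 buffer, 4% DMSO final, 60 min at 30° C. Reaction stopped with phosphoric acid, filter-captured and scintillation-counted; IC50 derived from dose-response.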

[2] = biological target: PDGFRβ kinase (Homo sapiens (Human), UniProt P09619); assay: PDGFRβ kinase assay (radiometric); assay type: biochemical
Chain of PDGFRβ kinase (P09619 33-1106): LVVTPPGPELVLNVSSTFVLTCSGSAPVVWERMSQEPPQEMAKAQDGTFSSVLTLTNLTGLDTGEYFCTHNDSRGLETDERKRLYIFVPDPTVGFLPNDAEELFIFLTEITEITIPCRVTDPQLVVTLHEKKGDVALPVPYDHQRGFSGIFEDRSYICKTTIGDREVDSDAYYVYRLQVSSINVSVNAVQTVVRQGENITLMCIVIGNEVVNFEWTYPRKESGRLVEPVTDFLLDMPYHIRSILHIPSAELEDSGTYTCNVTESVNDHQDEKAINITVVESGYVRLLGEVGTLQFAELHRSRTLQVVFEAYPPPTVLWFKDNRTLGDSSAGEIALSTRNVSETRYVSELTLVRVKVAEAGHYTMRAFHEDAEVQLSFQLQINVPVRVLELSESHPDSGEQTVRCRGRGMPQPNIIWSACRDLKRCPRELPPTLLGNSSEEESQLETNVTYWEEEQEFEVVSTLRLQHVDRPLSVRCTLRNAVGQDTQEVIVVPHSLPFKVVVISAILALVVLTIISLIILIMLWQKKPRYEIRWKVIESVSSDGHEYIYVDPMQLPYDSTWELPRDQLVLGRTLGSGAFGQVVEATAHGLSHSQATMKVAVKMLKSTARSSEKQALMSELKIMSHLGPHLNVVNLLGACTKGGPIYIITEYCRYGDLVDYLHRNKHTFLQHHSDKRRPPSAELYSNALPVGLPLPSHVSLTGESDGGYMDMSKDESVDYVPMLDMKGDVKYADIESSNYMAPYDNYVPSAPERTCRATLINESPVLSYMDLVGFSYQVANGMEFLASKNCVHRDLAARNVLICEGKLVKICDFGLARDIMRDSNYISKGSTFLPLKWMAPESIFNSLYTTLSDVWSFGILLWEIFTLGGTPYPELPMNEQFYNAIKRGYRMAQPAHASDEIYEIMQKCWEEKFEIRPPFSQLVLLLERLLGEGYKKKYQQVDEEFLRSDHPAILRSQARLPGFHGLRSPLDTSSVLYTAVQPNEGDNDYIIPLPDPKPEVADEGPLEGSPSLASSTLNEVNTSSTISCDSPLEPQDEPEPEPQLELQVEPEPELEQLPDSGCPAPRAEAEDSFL
Procedure, shortened: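 Radiometric assay: recombinant PDGFRβ with poly(Glu4:Tyr1) in MOPS pH 7.0 buffer containing Mg2+/Mn2+, 10 μM ATP plus [33P]-ATP, and compound at 4% DMSO final. Incubated 60 min at 30° C, stopped with phosphoric acid, filter-captured and scintillation-counted. IC50 from curve fitting.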

[3] = test system: CSF-1-dependent M-NFS-60 mouse myeloid leukemia cell; assay: M-NFS-60 cell proliferation assay (CellTiter-96); assay type: cell-based; settings: Cytotoxicity, M-NFS-60 cells, 72 hours
Procedure, shortened: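 Growth inhibition was measured as absorbance at 490 nm after 4 h with CellTiter 96 AQueous One reagent. Beforehand, M-NFS-60 cells (2000/well, CSF-1-dependent) were treated with a compound dilution series for 72 h following overnight plating at 37 °C, 5% CO2.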

[4] = test system: THP-1 human acute monocytic leukemia cell harboring NRAS G12D mutation; assay: THP-1 cell proliferation assay (counter screen, CellTiter-96); assay type: cell-based; settings: Cytotoxicity, THP-1 cells (counter screen), 72 hours
Procedure, shortened: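 Growth inhibition read as 490 nm absorbance after 4 h with CellTiter96 AQueous One reagent, following 72 h compound exposure at rising concentrations. THP-1 (NRAS G12D) cells plated at 5000 per well and left overnight at 37 °C, 5% CO2 before dosing.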

[5] = test system: MV4-11 human acute myeloid leukemia cell with FLT3-ITD mutation; assay: MV4-11 cell proliferation assay (CellTiter-96); assay type: cell-based; settings: Cytotoxicity, MV4-11 cells, 72 hours
Procedure, shortened: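 Growth inhibition read as absorbance at 490 nm after 4 hours with CellTiter96 AQueous One reagent. Before that, FLT3-ITD-dependent MV4-11 cells (6500 cells/well, overnight at 37° C., 5% CO2) received a rising compound concentration series for 72 hours.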

[6] = test system: osteoclast precursors (osteoclast differentiation); assay: Osteoclast tartrate-resistant acid phosphatase assay; assay type: cell-based; settings: 168 h, at 1 μM treatment, 7 days, RANKL and M-CSF, read-out: inhibition activity against osteoclast differentiation
Procedure, shortened: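 Differentiation inhibition was scored at 1 μM compound in duplicate, using supernatant TRAP activity read at 550 nm with an acid phosphatase kit.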

[7] = biological target: CSF-1R kinase (Homo sapiens (Human), UniProt P07333); assay: CSF-1R kinase assay (AlphaScreen); assay type: biochemical; settings: class symbol
Chain of CSF-1R kinase (P07333 20-972): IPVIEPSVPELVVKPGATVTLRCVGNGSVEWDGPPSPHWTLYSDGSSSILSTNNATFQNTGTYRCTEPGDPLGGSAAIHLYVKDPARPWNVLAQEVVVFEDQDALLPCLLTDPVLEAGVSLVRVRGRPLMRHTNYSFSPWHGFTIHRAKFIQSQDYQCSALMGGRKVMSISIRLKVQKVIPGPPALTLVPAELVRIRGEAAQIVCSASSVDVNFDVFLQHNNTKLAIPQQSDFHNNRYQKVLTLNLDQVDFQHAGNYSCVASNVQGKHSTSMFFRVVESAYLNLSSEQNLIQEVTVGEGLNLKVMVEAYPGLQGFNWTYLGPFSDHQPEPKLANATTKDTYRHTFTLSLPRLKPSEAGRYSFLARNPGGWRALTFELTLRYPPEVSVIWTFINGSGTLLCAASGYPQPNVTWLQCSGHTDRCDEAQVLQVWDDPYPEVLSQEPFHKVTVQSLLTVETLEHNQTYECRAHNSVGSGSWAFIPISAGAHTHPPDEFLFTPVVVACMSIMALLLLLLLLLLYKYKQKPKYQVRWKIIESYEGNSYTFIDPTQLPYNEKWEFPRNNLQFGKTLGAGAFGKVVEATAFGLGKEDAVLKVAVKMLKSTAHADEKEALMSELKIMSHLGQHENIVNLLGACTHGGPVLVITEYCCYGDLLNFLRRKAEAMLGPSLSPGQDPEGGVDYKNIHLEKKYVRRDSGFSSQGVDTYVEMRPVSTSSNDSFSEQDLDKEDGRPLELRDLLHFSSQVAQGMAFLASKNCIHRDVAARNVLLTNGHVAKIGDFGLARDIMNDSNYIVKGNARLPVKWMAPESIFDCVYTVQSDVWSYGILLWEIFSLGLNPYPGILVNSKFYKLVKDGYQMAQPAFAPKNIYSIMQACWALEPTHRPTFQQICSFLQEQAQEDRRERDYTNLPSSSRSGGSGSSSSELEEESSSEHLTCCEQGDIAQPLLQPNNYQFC
Protocol: Inhibition of CSF-1R kinase activity by a test compound disclosed herein was estimated by AlphaScreen (PerkinElmer). […] Reactions were incubated at 30° C. for 45 min and stopped by adding 5 μL of 50 mM EDTA. Analysis of resulting product using an AlphaScreen kit, and counted with Enspire Alpha (PerkinElmer). […] The IC50 values of quinoxaline compounds of this invention against CSF-1R kinase were determined using the GraphPad Prism 5 software.

[8] = test system: Kasumi-1 human acute myeloid leukemia cell with c-KIT N822K activating mutation; assay: Kasumi-1 cell proliferation assay (CellTiter-96); assay type: cell-based; settings: Cytotoxicity, Kasumi-1 cells, 72 hours
Procedure, shortened: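 After 72 h of treatment with a compound dilution series, growth of c-KIT N822K-driven Kasumi-1 cells (64000 per well, plated the day before) was read as 490 nm absorbance. This followed a 4 h incubation with CellTiter96 AQueous One reagent.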

[9] = biological target: c-KIT kinase (Homo sapiens (Human), UniProt P10721); assay: c-KIT kinase assay (radiometric); assay type: biochemical
Chain of c-KIT kinase (P10721 26-976): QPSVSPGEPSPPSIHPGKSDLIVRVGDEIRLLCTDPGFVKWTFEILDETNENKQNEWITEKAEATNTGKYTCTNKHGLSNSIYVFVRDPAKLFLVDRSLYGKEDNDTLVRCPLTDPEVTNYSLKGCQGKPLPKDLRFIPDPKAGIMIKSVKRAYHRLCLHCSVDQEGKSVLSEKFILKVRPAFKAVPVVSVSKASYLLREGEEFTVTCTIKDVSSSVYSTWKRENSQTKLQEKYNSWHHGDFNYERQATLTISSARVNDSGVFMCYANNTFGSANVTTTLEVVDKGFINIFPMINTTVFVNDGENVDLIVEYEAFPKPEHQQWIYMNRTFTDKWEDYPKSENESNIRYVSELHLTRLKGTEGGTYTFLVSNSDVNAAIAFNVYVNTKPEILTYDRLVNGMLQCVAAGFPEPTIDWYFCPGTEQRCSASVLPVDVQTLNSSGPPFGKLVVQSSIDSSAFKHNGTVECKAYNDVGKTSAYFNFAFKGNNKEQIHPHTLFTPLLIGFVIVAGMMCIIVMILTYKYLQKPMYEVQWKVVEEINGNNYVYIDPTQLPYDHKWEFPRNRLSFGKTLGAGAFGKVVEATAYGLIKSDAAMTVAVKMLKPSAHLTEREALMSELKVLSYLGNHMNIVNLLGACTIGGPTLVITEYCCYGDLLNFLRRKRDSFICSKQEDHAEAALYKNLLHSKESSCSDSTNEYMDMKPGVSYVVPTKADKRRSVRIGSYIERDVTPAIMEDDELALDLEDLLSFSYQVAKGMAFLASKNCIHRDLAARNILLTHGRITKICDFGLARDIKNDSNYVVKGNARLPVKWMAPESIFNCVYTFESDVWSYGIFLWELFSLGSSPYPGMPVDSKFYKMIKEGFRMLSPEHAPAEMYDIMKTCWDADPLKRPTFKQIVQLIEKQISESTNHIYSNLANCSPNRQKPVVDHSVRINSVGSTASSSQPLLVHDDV
Procedure, shortened: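 Recombinant c-Kit (20 ng) with 2 μg Poly-(Glu4:Tyr1) in MOPS pH 7.0 buffer with MgCl2/MnCl2, 10 μM ATP plus [^33P]-ATP, 4% DMSO final, 60 min at 30° C. Stopped with phosphoric acid, filter-captured and scintillation counted; IC50 from curve fit.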

Chain of FLT3 kinase (P36888 27-993): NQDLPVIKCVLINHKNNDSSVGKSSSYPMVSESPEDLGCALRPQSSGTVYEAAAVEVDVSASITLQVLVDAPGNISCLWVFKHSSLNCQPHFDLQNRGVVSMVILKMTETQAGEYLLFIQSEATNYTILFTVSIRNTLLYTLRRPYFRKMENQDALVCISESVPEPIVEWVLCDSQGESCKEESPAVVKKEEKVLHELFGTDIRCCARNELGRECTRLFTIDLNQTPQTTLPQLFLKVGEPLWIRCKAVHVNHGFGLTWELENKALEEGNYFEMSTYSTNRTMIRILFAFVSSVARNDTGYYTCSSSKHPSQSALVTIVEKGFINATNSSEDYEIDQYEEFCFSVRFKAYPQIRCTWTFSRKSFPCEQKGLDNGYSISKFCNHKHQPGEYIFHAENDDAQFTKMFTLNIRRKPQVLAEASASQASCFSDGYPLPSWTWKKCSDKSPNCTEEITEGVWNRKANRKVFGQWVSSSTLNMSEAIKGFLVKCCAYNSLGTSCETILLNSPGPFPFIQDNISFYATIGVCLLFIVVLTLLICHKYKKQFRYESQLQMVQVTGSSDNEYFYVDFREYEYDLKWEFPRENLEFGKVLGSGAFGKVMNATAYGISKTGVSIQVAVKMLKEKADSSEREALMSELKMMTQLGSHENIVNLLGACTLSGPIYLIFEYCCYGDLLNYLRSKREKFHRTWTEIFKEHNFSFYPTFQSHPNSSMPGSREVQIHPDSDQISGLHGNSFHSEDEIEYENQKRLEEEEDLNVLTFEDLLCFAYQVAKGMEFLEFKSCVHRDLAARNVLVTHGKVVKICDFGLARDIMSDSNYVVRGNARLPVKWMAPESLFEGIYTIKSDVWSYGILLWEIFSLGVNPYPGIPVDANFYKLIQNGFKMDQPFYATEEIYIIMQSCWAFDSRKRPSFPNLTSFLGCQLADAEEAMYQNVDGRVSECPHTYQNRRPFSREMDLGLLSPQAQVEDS

SMILES | IC50 [1] | IC50 ([2]; bound) | IC50 [3] | IC50 [4] | IC50 [5] | inhibition at 1 µM [6] | IC50 [7] | IC50 [8] | IC50 ([9]; class symbol) | IC50 ([9]; bound) | IC50 ([2]; class symbol)
COc1cc(Nc2ccc3ncc(N4CCOCC4)nc3c2C#N)ccc1OCc1cnn(C)c1 [Example 105, 6-((3-methoxy-4-((1-methyl-1H-pyrazol-4-yl)methoxy)phenyl)amino)-3-morpholinoquinoxaline-5-carbonitrile] | > 1000 nM | > 1000 nM | < 300 nM | > 10000 nM | 1000 to 10000 nM | > 50% | < 100 nM | 300 to 1000 nM | < 100 nM | – | –
COc1cc(Nc2ccc3ncc(N4C[C@@H](C)O[C@@H](C)C4)nc3c2C#N)ccc1OCc1ccc(C)nc1 [Example 145, 3-((2S,6R)-2,6-dimethylmorpholino)-6-((3-methoxy-4-((6-methyl-pyridin-3-yl)methoxy)phenyl)amino)quinoxaline-5-carbonitrile] | > 1000 nM | > 1000 nM | < 300 nM | > 10000 nM | 1000 to 10000 nM | > 50% | < 100 nM | 300 to 1000 nM | 100 to 300 nM | – | –
COc1cc(Nc2ccc3ncc(N4CCOCC4)nc3c2C#N)ccc1OCc1ccc(F)cc1 [Example 40, 6-((4-((4-fluorobenzyl)oxy)-3-methoxyphenyl)amino)-3-morpholinoquinoxaline-5-carbonitrile] | > 1000 nM | > 1000 nM | < 300 nM | > 10000 nM | > 10000 nM | > 50% | < 100 nM | > 10000 nM | – | > 1000 nM | –
COc1ccc(COc2ccc(Nc3ccc4ncc(N5CCNCC5)nc4c3C#N)cc2OC)cc1 [Example 90, 6-((3-methoxy-4-((4-methoxybenzyl)oxy)phenyl)amino)-3-(piperazin-1-yl)quinoxaline-5-carbonitrile] | > 1000 nM | > 1000 nM | < 300 nM | > 10000 nM | > 10000 nM | > 50% | < 100 nM | 300 to 1000 nM | < 100 nM | – | –
COc1ccc(COc2ccc(Nc3ccc4ncc(N(C)C)nc4c3C#N)cc2OC)cc1C#N [Example 139, 6-((4-((3-cyano-4-methoxybenzyl)oxy)-3-methoxyphenyl)amino)-3-(dimethylamino)quinoxaline-5-carbonitrile] | > 1000 nM | > 1000 nM | < 300 nM | > 10000 nM | > 10000 nM | > 50% | < 100 nM | > 10000 nM | 100 to 300 nM | – | –
C=C(C)c1cnc2ccc(Nc3ccc(OCc4ccc(OC)cc4)c(OC)c3)c(C#N)c2n1 [Example 108, 6-((3-methoxy-4-((4-methoxybenzyl)oxy)phenyl)amino)-3-(prop-1-en-2-yl)quinoxaline-5-carbonitrile] | > 1000 nM | > 1000 nM | 1000 to 10000 nM | > 10000 nM | > 10000 nM | > 50% | < 100 nM | > 10000 nM | – | > 1000 nM | –
CCOc1ccc(COc2ccc(Nc3ccc4ncc(N5CCOCC5)nc4c3C#N)cc2OC)cn1 [Example 112, 6-((4-((6-ethoxypyridin-3-yl)methoxy)-3-methoxyphenyl)amino)-3-morpholinoquinoxaline-5-carbonitrile] | > 1000 nM | > 1000 nM | < 300 nM | > 10000 nM | 1000 to 10000 nM | > 50% | < 100 nM | < 300 nM | < 100 nM | – | –
COc1ccc(COc2ccc(Nc3ccc4ncc(N5CCN(CCO)CC5)nc4c3C#N)cc2OC)cc1 [Example 66, 3-(4-(2-hydroxyethyl)piperazin-1-yl)-6-((3-methoxy-4-((4-methoxybenzyl)oxy)phenyl)amino)quinoxaline-5-carbonitrile] | > 1000 nM | – | < 300 nM | > 10000 nM | 1000 to 10000 nM | > 50% | < 100 nM | < 300 nM | < 100 nM | – | 300 to 1000 nM
